Measured values reported in ChEMBL document CHEMBL1201862, “PubChem BioAssay data set” (2004).
The source made the active and inactive calls.

Tests used:
[1] = inhibitors of intracellular T. cruzi replication, confirmation, NIH3T3 host cells, beta-gal luminescence (AID 2044); assay type: functional, cell-based;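 further: intracellular parasites grown in NIH/3T3 mouse fibroblasts as host cells; luminescent beta-galactosidase reporter signal from transgenic T. cruzi replicating inside host cells; inhibitors lower the luminescence signal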
[2] = cytotoxicity toward NIH3T3 fibroblasts, dose response, counter-screen, cell-based, ATP luminescence, mouse fibroblasts (AID 2010); assay type: functional;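 further: cells exposed to compound for about 90 hours before reading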
[3] = molecular target: Intestinal-type alkaline phosphatase (Homo sapiens, UniProt P09923); test: inhibition of human intestinal alkaline phosphatase – biochemical, dose response (AID 488876); assay type: functional
[4] = molecular target: Alkaline phosphatase, tissue-nonspecific isozyme (Homo sapiens, UniProt P05186); test: TNAP enzyme inhibition by screening hits, dose response, selectivity assay for mouse IAP inhibitor project, biochemical, human TNAP, uHTS hits (AID 488906); assay type: functional
[5] = molecular target: Intestinal-type alkaline phosphatase (Mus musculus, UniProt P24822); test: PubChem AID 488785; assay type: functional
[6] = molecular target: Nuclear receptor ROR-gamma (Homo sapiens, UniProt P51449); test: ROR modulator nuclear receptor reporter panel, late-stage follow-up, ROR modulator project, cell-based, luciferase reporter, panel member RORG (AID 2117)
[7] = molecular target: Nuclear receptor ROR-alpha (Homo sapiens, UniProt P35398); test: ROR modulator nuclear receptor reporter panel, late-stage follow-up, ROR modulator project, cell-based, luciferase reporter, panel member RORA (AID 2117)
Nuclear receptor ROR-alpha, sequence (P35398 whole entry): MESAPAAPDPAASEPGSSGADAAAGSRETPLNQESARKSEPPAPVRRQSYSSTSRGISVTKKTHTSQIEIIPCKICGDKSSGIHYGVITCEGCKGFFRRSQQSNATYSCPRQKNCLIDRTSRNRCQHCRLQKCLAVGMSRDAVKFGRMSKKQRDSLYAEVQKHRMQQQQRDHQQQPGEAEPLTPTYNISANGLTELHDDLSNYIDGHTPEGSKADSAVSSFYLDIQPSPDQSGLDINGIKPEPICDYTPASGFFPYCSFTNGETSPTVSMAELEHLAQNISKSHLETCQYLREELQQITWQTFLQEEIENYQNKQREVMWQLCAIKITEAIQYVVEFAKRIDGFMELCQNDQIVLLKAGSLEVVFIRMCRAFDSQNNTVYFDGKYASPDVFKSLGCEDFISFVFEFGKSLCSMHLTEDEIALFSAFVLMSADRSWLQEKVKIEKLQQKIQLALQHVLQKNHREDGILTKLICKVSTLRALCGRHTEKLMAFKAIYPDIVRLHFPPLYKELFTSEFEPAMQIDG

[8] = molecular target: T1, Dual specificity protein phosphatase 3 (Homo sapiens, UniProt P51452); test: VHR1 phosphatase inhibitors, biochemical (AID 1878)
T1 sequence (P51452 whole entry): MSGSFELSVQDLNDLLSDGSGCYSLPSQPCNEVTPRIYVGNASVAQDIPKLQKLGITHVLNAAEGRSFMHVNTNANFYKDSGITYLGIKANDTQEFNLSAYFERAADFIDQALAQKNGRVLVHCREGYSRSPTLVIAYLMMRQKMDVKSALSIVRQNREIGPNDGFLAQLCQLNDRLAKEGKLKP

SUMO-activating enzyme [9] = molecular target: T2, SUMO-activating enzyme (Homo sapiens, UniProt Q9UBT2); test: SUMOylation inhibitor hit validation, confirmation, SUMOylation inhibitor project, biochemical, AlphaScreen (AID 2018); assay type: functional
T2 sequence (Q9UBE0 whole entry): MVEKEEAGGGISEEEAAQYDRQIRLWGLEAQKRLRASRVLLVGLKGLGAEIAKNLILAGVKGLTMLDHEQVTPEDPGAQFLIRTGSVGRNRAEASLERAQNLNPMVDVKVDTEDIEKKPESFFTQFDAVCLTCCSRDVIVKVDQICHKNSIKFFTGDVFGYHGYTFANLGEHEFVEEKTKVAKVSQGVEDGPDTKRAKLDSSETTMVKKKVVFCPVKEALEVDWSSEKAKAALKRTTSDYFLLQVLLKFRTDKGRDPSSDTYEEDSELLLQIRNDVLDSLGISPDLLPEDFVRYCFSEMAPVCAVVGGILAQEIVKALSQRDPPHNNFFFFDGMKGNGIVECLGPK
T2 sequence (Q9UBT2 whole entry): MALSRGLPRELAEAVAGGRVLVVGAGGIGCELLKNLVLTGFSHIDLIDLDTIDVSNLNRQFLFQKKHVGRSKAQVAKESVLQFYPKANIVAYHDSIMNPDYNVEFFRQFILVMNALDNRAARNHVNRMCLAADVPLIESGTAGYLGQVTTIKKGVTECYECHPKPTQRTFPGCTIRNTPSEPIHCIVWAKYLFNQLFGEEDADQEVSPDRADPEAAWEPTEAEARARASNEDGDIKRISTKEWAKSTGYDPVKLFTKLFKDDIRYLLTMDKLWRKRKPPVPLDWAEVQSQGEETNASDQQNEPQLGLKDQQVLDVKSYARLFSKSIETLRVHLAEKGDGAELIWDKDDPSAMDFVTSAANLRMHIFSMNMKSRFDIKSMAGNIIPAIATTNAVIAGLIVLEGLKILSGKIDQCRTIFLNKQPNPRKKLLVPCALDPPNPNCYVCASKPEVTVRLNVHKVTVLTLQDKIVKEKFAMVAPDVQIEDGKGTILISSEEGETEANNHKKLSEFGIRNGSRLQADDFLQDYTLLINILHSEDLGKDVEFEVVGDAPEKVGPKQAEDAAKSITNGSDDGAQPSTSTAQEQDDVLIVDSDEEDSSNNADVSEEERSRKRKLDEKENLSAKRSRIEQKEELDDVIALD

[10] = molecular target: T1, Dual specificity protein phosphatase 3; test: VHR1 phosphatase inhibitors, primary screen, biochemical, absorbance, uHTS (AID 1654)
[11] = molecular target: T3, Voltage-gated N-type calcium channel alpha-1B subunit/Amyloid beta A4 precursor protein-binding family A member 1 (Homo sapiens, UniProt Q00975+Q02410); assay type: protein assay
T3 sequence (Q00975 whole entry): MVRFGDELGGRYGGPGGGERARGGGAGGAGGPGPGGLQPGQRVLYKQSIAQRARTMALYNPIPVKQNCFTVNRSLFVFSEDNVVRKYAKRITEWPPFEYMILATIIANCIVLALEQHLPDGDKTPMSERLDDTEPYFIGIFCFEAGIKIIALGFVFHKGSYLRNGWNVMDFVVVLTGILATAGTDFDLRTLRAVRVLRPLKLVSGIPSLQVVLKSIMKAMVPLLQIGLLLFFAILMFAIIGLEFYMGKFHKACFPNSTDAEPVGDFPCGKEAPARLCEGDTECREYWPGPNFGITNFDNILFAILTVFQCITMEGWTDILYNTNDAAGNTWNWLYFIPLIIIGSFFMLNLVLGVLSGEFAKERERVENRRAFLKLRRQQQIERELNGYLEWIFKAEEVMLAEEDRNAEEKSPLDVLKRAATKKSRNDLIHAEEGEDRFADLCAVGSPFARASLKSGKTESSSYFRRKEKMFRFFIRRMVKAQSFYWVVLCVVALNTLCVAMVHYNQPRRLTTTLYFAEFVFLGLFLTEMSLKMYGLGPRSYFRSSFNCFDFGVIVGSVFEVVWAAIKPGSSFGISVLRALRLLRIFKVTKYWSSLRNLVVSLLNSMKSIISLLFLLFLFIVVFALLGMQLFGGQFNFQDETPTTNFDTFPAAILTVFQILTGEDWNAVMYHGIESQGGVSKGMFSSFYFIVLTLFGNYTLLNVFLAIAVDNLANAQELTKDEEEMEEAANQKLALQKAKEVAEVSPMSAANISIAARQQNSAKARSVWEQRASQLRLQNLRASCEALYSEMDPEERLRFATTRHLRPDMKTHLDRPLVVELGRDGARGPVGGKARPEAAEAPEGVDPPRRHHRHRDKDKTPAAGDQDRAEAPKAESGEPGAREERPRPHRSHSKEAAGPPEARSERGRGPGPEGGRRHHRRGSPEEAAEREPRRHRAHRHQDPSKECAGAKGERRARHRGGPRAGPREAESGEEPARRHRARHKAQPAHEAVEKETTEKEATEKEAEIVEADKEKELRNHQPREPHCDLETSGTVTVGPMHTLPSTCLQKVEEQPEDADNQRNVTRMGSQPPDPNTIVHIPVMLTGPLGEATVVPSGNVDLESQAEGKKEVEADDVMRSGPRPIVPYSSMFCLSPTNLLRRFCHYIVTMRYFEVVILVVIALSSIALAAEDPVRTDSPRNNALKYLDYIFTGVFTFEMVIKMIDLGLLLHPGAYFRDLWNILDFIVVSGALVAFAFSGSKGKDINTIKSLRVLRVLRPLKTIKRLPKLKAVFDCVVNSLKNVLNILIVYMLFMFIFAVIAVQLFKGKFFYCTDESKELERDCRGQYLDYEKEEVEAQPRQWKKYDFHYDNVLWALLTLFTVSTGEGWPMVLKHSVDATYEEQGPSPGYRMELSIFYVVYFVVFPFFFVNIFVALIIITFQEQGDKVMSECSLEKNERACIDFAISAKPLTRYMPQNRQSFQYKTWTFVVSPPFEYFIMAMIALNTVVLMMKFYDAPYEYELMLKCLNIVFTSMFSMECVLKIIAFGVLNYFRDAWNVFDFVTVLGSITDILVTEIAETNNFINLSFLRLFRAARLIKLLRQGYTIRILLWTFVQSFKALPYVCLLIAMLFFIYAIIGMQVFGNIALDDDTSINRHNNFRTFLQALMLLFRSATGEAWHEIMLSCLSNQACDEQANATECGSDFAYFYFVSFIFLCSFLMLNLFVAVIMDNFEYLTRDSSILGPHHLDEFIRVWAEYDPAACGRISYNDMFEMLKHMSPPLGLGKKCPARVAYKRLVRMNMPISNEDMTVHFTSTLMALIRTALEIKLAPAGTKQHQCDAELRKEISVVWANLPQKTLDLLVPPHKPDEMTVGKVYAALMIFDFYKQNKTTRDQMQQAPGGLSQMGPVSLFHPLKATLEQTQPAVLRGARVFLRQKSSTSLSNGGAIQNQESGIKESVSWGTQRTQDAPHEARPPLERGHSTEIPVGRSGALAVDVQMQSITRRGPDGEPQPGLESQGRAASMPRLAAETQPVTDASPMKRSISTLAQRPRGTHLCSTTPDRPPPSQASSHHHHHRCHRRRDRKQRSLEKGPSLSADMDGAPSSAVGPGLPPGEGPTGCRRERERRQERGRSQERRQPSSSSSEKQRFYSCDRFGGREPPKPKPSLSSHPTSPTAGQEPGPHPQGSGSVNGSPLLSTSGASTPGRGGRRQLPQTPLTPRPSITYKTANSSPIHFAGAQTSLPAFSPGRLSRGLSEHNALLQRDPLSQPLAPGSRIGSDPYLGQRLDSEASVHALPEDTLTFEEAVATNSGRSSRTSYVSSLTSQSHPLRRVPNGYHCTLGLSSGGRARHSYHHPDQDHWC
T3 sequence (Q02410 whole entry): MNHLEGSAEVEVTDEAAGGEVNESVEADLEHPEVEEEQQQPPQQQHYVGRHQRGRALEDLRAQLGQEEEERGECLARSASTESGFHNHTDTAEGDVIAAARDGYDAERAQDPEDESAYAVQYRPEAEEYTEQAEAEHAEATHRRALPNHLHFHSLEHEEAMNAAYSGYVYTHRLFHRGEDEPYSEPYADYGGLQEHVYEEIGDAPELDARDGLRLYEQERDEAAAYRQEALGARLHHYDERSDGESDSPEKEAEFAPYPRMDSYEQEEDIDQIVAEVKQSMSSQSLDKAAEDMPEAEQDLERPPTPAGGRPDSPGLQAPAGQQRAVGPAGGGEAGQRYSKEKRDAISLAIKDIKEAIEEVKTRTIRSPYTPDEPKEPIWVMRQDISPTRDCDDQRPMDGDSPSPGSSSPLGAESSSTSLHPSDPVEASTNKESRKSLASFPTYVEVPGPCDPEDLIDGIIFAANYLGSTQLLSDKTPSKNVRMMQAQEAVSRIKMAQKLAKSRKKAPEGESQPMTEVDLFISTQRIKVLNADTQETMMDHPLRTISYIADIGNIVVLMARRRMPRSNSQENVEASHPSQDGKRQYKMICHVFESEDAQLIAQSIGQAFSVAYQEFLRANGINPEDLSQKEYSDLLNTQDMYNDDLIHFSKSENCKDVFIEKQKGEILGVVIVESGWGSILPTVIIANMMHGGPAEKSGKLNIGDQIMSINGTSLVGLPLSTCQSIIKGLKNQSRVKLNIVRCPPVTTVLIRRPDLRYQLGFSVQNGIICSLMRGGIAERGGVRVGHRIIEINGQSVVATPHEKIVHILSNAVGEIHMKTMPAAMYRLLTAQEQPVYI

[12] = molecular target: T4, Small ubiquitin-related modifier 1 (Homo sapiens, UniProt P63165); test: inhibitors of SUMO1 peptide binding, dose response, biochemical, fluorescence polarization, uHTS hits (AID 624382); assay type: functional; details: read-out: IC50_Mean
T4 sequence (P63165 whole entry): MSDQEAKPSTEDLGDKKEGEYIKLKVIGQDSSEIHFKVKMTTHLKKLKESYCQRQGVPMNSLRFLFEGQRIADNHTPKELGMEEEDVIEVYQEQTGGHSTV

[13] = molecular target: Guanyl-specific ribonuclease T1 (Aspergillus oryzae (strain ATCC 42149 / RIB 40), UniProt P00651); test: RNase T1 inhibitors, dose response, counter-screen for TPT1 inhibitor project, biochemical, fluorescence polarization, 1536-well (AID 2167)
SUMO-activating enzyme [14] = molecular target: T2, SUMO-activating enzyme; test: inhibitors of in vitro SUMOylation cascade, primary screen, biochemical, HTRF, uHTS (AID 2006); assay type: protein-complex assay
[15] = molecular target: T5, Dual specificity protein phosphatase 6 (Rattus norvegicus, UniProt Q64346); test: MKP-3 phosphatase inhibitors, primary screen, biochemical, rat enzyme, in vitro (AID 425)
T5 sequence (Q64346 whole entry): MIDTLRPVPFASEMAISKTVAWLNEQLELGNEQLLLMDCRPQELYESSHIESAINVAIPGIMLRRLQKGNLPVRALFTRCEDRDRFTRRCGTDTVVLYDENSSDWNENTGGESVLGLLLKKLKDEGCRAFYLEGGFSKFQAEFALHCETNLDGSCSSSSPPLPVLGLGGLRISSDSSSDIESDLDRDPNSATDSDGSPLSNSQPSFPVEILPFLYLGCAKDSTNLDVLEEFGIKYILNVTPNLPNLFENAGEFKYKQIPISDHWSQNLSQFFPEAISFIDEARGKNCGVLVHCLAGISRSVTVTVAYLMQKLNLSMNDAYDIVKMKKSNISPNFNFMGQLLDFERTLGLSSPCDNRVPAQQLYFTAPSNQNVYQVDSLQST

[16] = molecular target: T3, Voltage-gated N-type calcium channel alpha-1B subunit/Amyloid beta A4 precursor protein-binding family A member 1; assay type: protein assay; remark: listed apart in the source
[17] = molecular target: Likely tRNA 2'-phosphotransferase (Candida albicans (strain SC5314 / ATCC MYA-2876) (Yeast), UniProt Q5A7N4); test: TPT1 tRNA phosphotransferase inhibitors, dose response, biochemical, fluorescence polarization (AID 2160)
[18] = molecular target: T4, Small ubiquitin-related modifier 1; test: inhibitors of SUMO1 partner interactions, dose response, biochemical, FRET (AID 624383); assay type: functional; details: read-out: IC50_Mean

SMILES: COc1cc(NC(S)=NCCC(c2ccccc2)c2ccccc2)cc(OC)c1
- EC50 [1]: 2.02 µM (active)
- EC50 [2]: > 60 µM (not active)
- IC50 [3]: > 100 µM (inactive)
- IC50 [4]: 12.2 µM (active)
- IC50 [5]: 13.7 µM (active)

SMILES: O=S(=O)(Nc1ccc(C(O)(C(F)(F)F)C(F)(F)F)cc1)c1cccc2cccnc12
- IC50 [6]: > 20 µM (inactive)
- IC50 [7]: > 20 µM (inactive)

SMILES: Cc1cc(C)n(Cc2ccc(C(=O)N/N=C/c3ccc(-c4ccc([N+](=O)[O-])cc4)o3)o2)n1
- IC50 [8]: 6.64 µM (active)
- IC50 (SUMO-activating enzyme [9]): 5.62 µM (active)
- IC50 [10]: 123 µM (inactive)
- IC50 [11]: 20.2 µM (active)
- IC50 [12]: > 66.6 µM (inactive)
- IC50 [13]: > 55.7 µM (not active)
- IC50 (SUMO-activating enzyme [14]): 33 µM (active)
- IC50 [15]: 40 µM (active)
- IC50 [16]: 14 µM (active)
- IC50 [17]: 3.55 µM (active)
- IC50 [18]: 3.17 µM (active)
